# Reference: US20030170181A1, “Method for preventing abuse of methylphenidate” (priority 1999, published 2003)
# Where “and” joins values, the source holds several entries; their conditions need not be identical. Equal values may be shown once. Read-outs that look alike come from different tables or passages of the source.
# Assays:
# [1] = Pharmacokinetics of d-threo and l-threo methylphenidate in plasma after oral administration of 40 mg immediate release racemic methylphenidate; type: in vivo, human; conditions: for fraction metabolized / bioavailability: after oral administration of commercially available racemic methylphenidate; for Cmax / Tmax / t½ / bioavailability / half-life: plasma; for Cmax / Tmax / t½ / half-life: oral 40 mg immediate release methylphenidate; for bioavailability: read-out: bioavailability in blood plasma; for half-life: read-out: t½ (converted)
# [2] = Pharmacokinetics of d-threo and l-threo methylphenidate in plasma after intravenous administration of 10 mg racemic methylphenidate; conditions: for CL / MRT / Vdss / t½ / clearance / Vd / half-life: plasma, IV 10 mg racemic methylphenidate; for clearance / Vd / half-life: male, human, iv, 10 mg; for clearance: CL; for Vd: Vdss; for half-life: t½; for plasma levels of d-MPH versus l-MPH: methylphenidate administered intravenously, up to 1.5 hours post dose
# Experimental: Eleven healthy male subjects were administered 10 mg of racemic methylphenidate (Ritalin®) by intravenous (IV) administration and 40 mg of racemic methylphenidate (Ritalin®) by immediate release (IR) oral administration.
# males with ADHD = experiment: Combined pharmacokinetic/pharmacodynamic study of dose regimens of methylphenidate on activity and attention (OPTAX measures); type: in vivo, human; conditions: pulsatile dosing schedule 2 (PD2): 0.4, 0.4, 0.2 mg/kg at 0, 240, 480 min; compared with CD1, CD2, PD1; twelve-hour day
# Source text: Combined pharmacokinetic/pharmacodynamic studies of methylphenidate using different dosage regiments were designed to determine if regimens that produced stable or rising methylphenidate levels had benefits, or if fluctuating levels were necessary to prevent rapid development of tolerance (tachyphylaxis). The experimental subjects were a group of seventy-three males with ADHD recruited from the general population through a newspaper advertisement. Each subject was between the ages of 9 to 12, was objectively hyperactive, and responded positively to methylphenidate. Hyperactivity levels of each boy were determined through OPTAX™ measures, a clinical tool that provides high-resolution assessment of movement patterns during performance of a novel, monotonous, yet challenging cognitive vigilance task. Through the OPTAX™ measures, it is possible to identify differences between drug regimens based solely on dosage schedule, while holding total daily dose constant. Of the 73 original boys, thirteen were excluded based on lack of symptoms by parent interview or on lack of objective hyperactivity greater than 25% over controls on OPTAX™ measures. […]
# The double blind parallel group study evaluated the efficacy of methylphenidate for the treatment of ADHD when given in a near continuous amount throughout the day and in pulsatile or fluctuating doses throughout the day. […]
# [3] = cited from earlier work
# [4] = individual subjects 1-11, listed as l
# [5] = male, human, po, 40 mg, mean of 11 subjects, read-out: Cmax
# [6] = male, human, po, 40 mg, mean of 11 subjects, read-out: Tmax
# [7] = male, human, po, 40 mg, mean of 11 subjects
# [8] = racemic d,l-threo methylphenidate
# [9] = individual subjects 1-11, listed as d
SMILES,fraction metabolized [1],"bioavailability ([1]; male, human, 40 mg) [%]","Cmax [1, 5] [ng/mL]","Tmax [1, 6] [h]","half-life [1, 7] [h]",clearance ([2]; mean of 11 subjects) [mL/min/kg],Vd ([2]; mean of 11 subjects) [L/kg],half-life ([2]; mean of 11 subjects) [h],MRT ([2]; mean of 11 subjects) [H],plasma levels of d-MPH versus l-MPH [2],also measured
"COC(=O)[C@@H](c1ccccc1)[C@@H]1CCCCN1 [l-MPH, l-threo methylphenidate]",approximately 95%,5,2.98,2.2,3.93,12.2,1.8,3.61,2.44,approximately equivalent plasma levels,"Cmax [1, 4]: 4.23 ng/mL and 2.49 ng/mL and 3.26 ng/mL and 1.59 ng/mL and 3.61 ng/mL and 1.49 ng/mL and 2.88 ng/mL and 4.01 ng/mL and 2.27 ng/mL and 3.03 ng/mL and 3.95 ng/mL; Tmax [1, 4]: 2.0 h and 3.0 h and 1.0 h and 1.5 h and 4.0 h; t½ [1, 4]: 4.61 h and 2.48 h and 4.06 h and 3.80 h and 3.09 h and 3.91 h and 4.24 h and 3.84 h and 3.55 h and 4.23 h and 5.41 h; CL [2, 4]: 0.56 L/kg · h^−1 and 0.82 L/kg · h^−1 and 0.59 L/kg · h^−1 and 0.41 L/kg · h^−1 and 1.05 L/kg · h^−1 and 0.26 L/kg · h^−1 and 0.89 L/kg · h^−1 and 0.49 L/kg · h^−1 and 0.78 L/kg · h^−1 and 1.11 L/kg · h^−1 and 1.02 L/kg · h^−1; MRT [2, 4]: 2.28 H and 2.02 H and 2.37 H and 2.63 H and 2.12 H and 2.50 H and 3.34 H and 1.42 H and 3.03 H and 2.84 H; Vdss [2, 4]: 1.27 L/kg and 1.86 L/kg and 1.19 L/kg and 0.97 L/kg and 2.77 L/kg and 0.56 L/kg and 2.23 L/kg and 1.63 L/kg and 1.03 L/kg and 3.36 L/kg and 2.89 L/kg; t½ [2, 4]: 2.08 h and 4.19 h and 2.63 h and 3.57 h and 5.11 h and 2.93 h and 2.21 h and 3.47 h and 4.06 h and 5.23 h"
"COC(=O)C(c1ccccc1)C1CCCCN1 (racemic) [methylphenidate, α-phenyl-2-piperidine-acetic acid methyl ester]",,,,,,,,,,,"improvement in activity (males with ADHD): most consistent improvement; improvement in attention (males with ADHD): most consistent improvement; time of maximum drug concentration ([3]; after oral administration): about two; duration of action [3, 8]: one to four; pharmacokinetic elimination half-life [3, 8]: two to three"
"COC(=O)[C@H](c1ccccc1)[C@H]1CCCCN1 [d-MPH, d-threo-methylphenidate]",approximately 78%,~22,18.1,2.4,5.69,6.67,2.65,5.96,6.53,approximately equivalent plasma levels,"Cmax [1, 9]: 12.42 ng/mL and 16.49 ng/mL and 13.81 ng/mL and 22.02 ng/mL and 18.52 ng/mL and 24.54 ng/mL and 22.48 ng/mL and 18.25 ng/mL and 22.91 ng/mL and 13.24 ng/mL; Tmax [1, 9]: 2.0 h and 3.0 h and 1.0 h and 4.0 h; t½ [1, 9]: 5.44 h and 6.67 h and 4.44 h and 5.83 h and 4.14 h and 6.22 h and 4.81 h and 6.31 h and 6.09 h and 5.29 h and 8.38 h; Cmax ([1]; male, human, po, 40 mg, individual subjects 1-11, read-out: Cmax): 14.7 ng/mL; CL [2, 9]: 0.32 L/kg · h^−1 and 0.45 L/kg · h^−1 and 0.33 L/kg · h^−1 and 0.28 L/kg · h^−1 and 0.53 L/kg · h^−1 and 0.20 L/kg · h^−1 and 0.63 L/kg · h^−1 and 0.34 L/kg · h^−1 and 0.44 L/kg · h^−1 and 0.41 L/kg · h^−1 and 0.42 L/kg · h^−1; MRT [2, 9]: 6.49 H and 4.63 H and 5.23 H and 5.75 H and 6.25 H and 4.68 H and 6.79 H and 5.86 H and 7.90 H and 9.44 H and 8.80 H; Vdss [2, 9]: 2.09 L/kg and 2.10 L/kg and 1.73 L/kg and 1.59 L/kg and 3.28 L/kg and 0.92 L/kg and 4.27 L/kg and 2.01 L/kg and 3.51 L/kg and 3.91 L/kg and 3.68 L/kg; t½ [2, 9]: 4.88 h and 4.81 h and 4.17 h and 5.38 h and 6.65 h and 3.97 h and 6.93 h and 4.65 h and 6.80 h and 8.68 h and 8.62 h"
